Measurements from patent US20170022171A1, “2,5-DISUBSTITUTED CYCLOPENTANECARBOXYLIC ACIDS AND THEIR USE” (Bayer Pharma Aktiengesellschaft, priority 2014, published 2017).
pIC50: −log10 of the molar value.

Legend:
Format in all cases: biochemical
[1] = molecular target: T1, human macrophage elastase (HME/hMMP-12) (Homo sapiens, UniProt P39900); experiment: In vitro HME inhibition test (standard or high-sensitivity); conditions: in some cases mean values
T1 construct: 0.5 nM HME; purchased R&D Systems 917-MP
T1 sequence (P39900 106-470): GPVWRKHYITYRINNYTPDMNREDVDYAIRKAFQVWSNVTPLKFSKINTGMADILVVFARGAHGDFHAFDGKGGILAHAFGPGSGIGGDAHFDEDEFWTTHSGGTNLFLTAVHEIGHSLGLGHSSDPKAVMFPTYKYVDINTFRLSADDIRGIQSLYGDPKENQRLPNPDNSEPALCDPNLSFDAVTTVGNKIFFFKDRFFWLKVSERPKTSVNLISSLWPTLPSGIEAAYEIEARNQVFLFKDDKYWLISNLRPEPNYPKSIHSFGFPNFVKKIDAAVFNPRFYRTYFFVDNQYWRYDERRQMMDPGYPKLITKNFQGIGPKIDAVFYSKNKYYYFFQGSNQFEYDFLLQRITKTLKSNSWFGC
How it was run: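 Fluorogenic assay: 0.5 nM autoactivated HME with 5 µM Mca-Pro-Leu-Gly-Leu-Glu-Glu-Ala-Dap(Dnp)-NH2 in HEPES pH 7.4 buffer (NaCl, CaCl2, ZnCl2, EDTA, Brij), 2 h at 37 °C; ex 323/em 393 nm. IC50 from fluorescence versus concentration. High-sensitivity format: ~0.05 nM enzyme, ~16 h incubation.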

MMP-7 = molecular target: T2, MMP-7 (Homo sapiens, UniProt P09237); experiment: In vitro MMP-7 inhibition test
T2 construct: purchased R&D Systems 907-MP
T2 sequence (P09237 95-267): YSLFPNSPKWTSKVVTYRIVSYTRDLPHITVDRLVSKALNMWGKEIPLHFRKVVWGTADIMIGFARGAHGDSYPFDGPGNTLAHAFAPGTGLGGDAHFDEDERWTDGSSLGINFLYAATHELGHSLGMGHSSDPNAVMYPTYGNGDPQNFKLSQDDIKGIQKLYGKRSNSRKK
Description: (§1) The MMP-mediated amidolytic cleavage of a suitable peptide substrate leads to an increase in fluorescent light here too. The signal intensity of the fluorescent light is directly proportional to the enzyme activity. The active concentration of a test compound at which half the enzyme is inhibited (50% signal intensity of the fluorescent light) is reported as the IC50 value.
Recombinant MMP-7 (from R&D Systems, 907-MP) is chemically activated in accordance with the manufacturer's instructions using APMA. 1 μl of the test compound to be analysed (as a solution in DMSO, suitable concentrations, for example, 1 nM to 30 μM) is pipetted into 24 μl of activated enzyme (final concentration, for example, 0.5 nM) in reaction buffer (50 mM Tris/HCl pH 7.5, 10 mM CaCl2, 150 mM NaCl, 0.05% Brij®-35) in a white 384-hole microtiter plate (MTP). The enzymatic reaction is started by adding the intramolecularly quenched Mca-Pro-Leu-Gly-Leu-Dpa(Dnp)-Ala-Arg-NH2 substrate (final concentration, for example, 10 μM; R&D Systems, ES-001), so as to result in a total test volume of […] The course of the MMP-7 reaction is measured by measuring the fluorescence intensity (excitation 320 nm, emission 410 nm) over a suitable period of time (for example over 120 min at a temperature of 32° C.).

MMP-8 = molecular target: T3, MMP-8 (Homo sapiens, UniProt P22894); experiment: In vitro MMP-8 inhibition test
T3 construct: purchased R&D Systems 908-MP
T3 sequence (P22894 101-467): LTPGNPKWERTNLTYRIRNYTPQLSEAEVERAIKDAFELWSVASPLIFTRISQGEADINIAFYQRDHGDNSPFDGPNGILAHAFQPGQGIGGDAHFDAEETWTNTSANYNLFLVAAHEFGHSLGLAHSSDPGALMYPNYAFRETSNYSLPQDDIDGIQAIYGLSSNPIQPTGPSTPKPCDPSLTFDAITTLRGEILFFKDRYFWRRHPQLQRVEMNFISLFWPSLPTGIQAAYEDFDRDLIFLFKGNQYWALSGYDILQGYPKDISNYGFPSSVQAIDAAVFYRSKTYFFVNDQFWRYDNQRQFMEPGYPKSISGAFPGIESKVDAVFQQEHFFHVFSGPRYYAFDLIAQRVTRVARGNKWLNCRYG
Description: as §1
Recombinant MMP-8 (from R&D Systems, 908-MP) is chemically activated in accordance with the manufacturer's instructions using APMA. 1 μl of the test compound to be analysed (as a solution in DMSO, suitable concentrations, for example, 1 nM to 30 μM) is pipetted into 24 μl of activated enzyme (final concentration, for example, 0.5 nM) in reaction buffer (50 mM Tris/HCl pH 7.5, 10 mM CaCl2, 150 mM NaCl, 0.05% Brij®-35) in a white 384-hole microtiter plate (MTP). The enzymatic reaction is started by adding the intramolecularly quenched Mca-Pro-Leu-Gly-Leu-Dpa(Dnp)-Ala-Arg-NH2 substrate (final concentration, for example, 10 μM; R&D Systems, ES-001), so as to result in a total test volume of 50 μl. The course of the MMP-8 reaction is measured by measuring the fluorescence intensity (excitation 320 nm, emission 410 nm) over a suitable period of time (for example over 120 min at a temperature of 32° C.).

MMP-14 = molecular target: T4, MMP-14 (Homo sapiens, UniProt P50281); experiment: In vitro MMP-14 inhibition test
T4 construct: purchased R&D Systems 918-MP
Description: as §1
Recombinant MMP-14 (from R&D Systems, 918-MP) is enzymatically activated in accordance with the manufacturer's instructions using recombinant furin (from R&D Systems, 1503-SE). 1 μl of the test compound to be analysed (as a solution in DMSO, suitable concentrations e.g. 1 nM to 30 μM) is pipetted into 24 μl of activated enzyme (final concentration e.g. 0.5 nM) in reaction buffer (50 mM Tris/HCl pH 7.5, 10 mM CaCl2, 150 mM NaCl, 0.05% Brij®-35) in a white 384-hole microtiter plate (MTP). The enzymatic reaction is started by adding the intramolecularly quenched Mca-Lys-Pro-Leu-Gly-Leu-Dpa(Dnp)-Ala-Arg-NH2 substrate (final concentration, for example, 5 μM; R&D Systems, ES-010), so as to result in a total test volume of 50 The course of the MMP-14 reaction is measured by measuring the fluorescence intensity (excitation 320 nm, emission 410 nm) over a suitable period of time (for example over 120 min at a temperature of 32° C.).

Molecule | pIC50 [1] | pIC50 (MMP-7) | pIC50 (MMP-8) | pIC50 (MMP-14)
O=C(O)[C@@H]1[C@@H](Cn2nnc3ccc(C(F)(F)F)cc3c2=O)CC[C@H]1C(=O)c1ccc(SCc2ccc(Cl)c(Cl)c2)cc1 (single isomer, unassigned) [Example 80, (+)-(1RS,2RS,5SR)-2-{4-[(3,4-Dichlorobenzyl)sulphanyl]benzoyl}-5-{[4-oxo-6-(trifluoromethyl)-1,2,3-benzotriazin-3(4H)-yl]methyl}cyclopentanecarboxylic acid] | 10.10 | 6.70 | 7.28 | 5.59
O=C(O)[C@H]1[C@H](Cn2nnc3ccccc3c2=O)CC[C@@H]1C(=O)c1ccc(OCCC2CCCCC2)cc1 (racemic) [Example 5, (+/−)-(1RS,2RS,5SR)-2-[4-(2-Cyclohexylethoxy)benzoyl]-5-[(4-oxo-1,2,3-benzotriazin-3(4H)-yl)methyl]cyclopentanecarboxylic acid] | 10.15 | 5.62 | 6.60 | 6.21
CCCCOc1ccc(C(=O)[C@@H]2CC[C@H](Cn3nnc4ccc(C(F)(F)F)cc4c3=O)[C@H]2C(=O)O)cc1 (single isomer, unassigned) [Example 67, (+)-(1RS,2RS,5SR)-2-(4-Butoxybenzoyl)-5-{[4-oxo-6-(trifluoromethyl)-1,2,3-benzotriazin-3(4H)-yl]methyl}cyclopentanecarboxylic acid] | 10.82 | 6.92 | 8.80 | 7.02
O=C(O)[C@@H]1[C@@H](Cn2nnc3ccc(C(F)(F)F)cc3c2=O)CC[C@H]1C(=O)c1ccc(OCc2cccc(C(F)(F)F)c2)cc1 (single isomer, unassigned) [Example 19, (+)-(1RS,2SR,5RS)-2-{[4-Oxo-6-(trifluoromethyl)-1,2,3-benzotriazin-3(4H)-yl]methyl}-5-(4-{[3-(trifluoromethyl)benzyl]oxy}benzoyl)cyclopentanecarboxylic acid] | 10.57 | 5.80 | 6.89 | 5.52
O=C(O)[C@@H]1[C@@H](Cn2nnc3ccc(C(F)(F)F)cc3c2=O)CC[C@H]1C(=O)c1ccc(SCc2cccc(Cl)c2)cc1 (single isomer, unassigned) [Example 77, (+)-(1RS,2RS,5SR)-2-{4-[(3-Chlorobenzyl)sulphanyl]benzoyl}-5-{[4-oxo-6-(trifluoromethyl)-1,2,3-benzotriazin-3(4H)-yl]methyl}cyclopentanecarboxylic acid] | 10.40 | 6.82 | 7.39 | 5.92
(+)-(1RS,2SR,5RS)-2-{[4-Oxo-6-(trifluoromethyl)-1,2,3-benzotriazin-3(4H)-yl]methyl}-5-{4-[(2-phenylethy)sulphanyl]benzoyl}cyclopentanecarboxylic acid [Example 83] | 9.96 | 6.80 | 6.59 | 5.41
O=C(O)[C@H]1[C@H](Cn2nnc3ccc(C(F)(F)F)cc3c2=O)CC[C@@H]1C(=O)c1ccc(OCC2CCCCC2)cc1 (racemic) [Example 40, (+/−)-(1RS,2RS,5SR)-2-[4-(Cyclohexylmethoxy)benzoyl]-5-{[4-oxo-6-(trifluoromethyl)-1,2,3-benzotriazin-3(4H)-yl]methyl}cyclopentanecarboxylic acid] | 10.32 | 6.59 | 8.20 | 6.34
(+)-(1RS,2RS,5SR)-2-{4-[(3,4-Dichlorobenzyl)oxy]benzoyl}-5-{[4-oxo-6-(trifluoromethyl)-1,2,3-benzotriazin-3(4H)-yl]methyl}cyclopentanecarboxylic acid [Example 28] | 10.44 | 6.52 | 7.37 | 5.72
O=C(O)[C@H]1[C@H](Cn2nnc3ccccc3c2=O)CC[C@@H]1C(=O)c1ccc(OCC2CCCC2)cc1 (racemic) [Example 4, (+/−)-(1RS,2RS,5SR)-2-[4-(Cyclopentylmethoxy)benzoyl]-5-[(4-oxo-1,2,3-benzotriazin-3(4H)-yl)methyl]cyclopentanecarboxylic acid] | 10.31 | 5.66 | 7.85 | 7.48

Continued, values first:

pIC50 [1] | pIC50 (MMP-7) | pIC50 (MMP-8) | pIC50 (MMP-14) | Molecule
10.11 | 6.46 | 7.74 | 6.09 | CCCCCCOc1ccc(C(=O)[C@@H]2CC[C@H](Cn3nnc4ccc(C)cc4c3=O)[C@H]2C(=O)O)cc1 (single isomer, unassigned) [Example 121, (+)-(1RS,2RS,5SR)-2-[4-(Hexyloxy)benzoyl]-5-[(6-methyl-4-oxo-1,2,3-benzotriazin-3(4H)-yl)methyl]cyclopentanecarboxylic acid]
9.85 | 5.77 | 7.06 | 6.17 | Cc1ccc2nnn(C[C@@H]3CC[C@H](C(=O)c4ccc(OCc5cccc(OC(F)(F)F)c5)cc4)[C@H]3C(=O)O)c(=O)c2c1 (racemic) [Example 109, (+/−)-(1RS,2SR,5RS)-2-[(6-Methyl-4-oxo-1,2,3-benzotriazin-3(4H)-yl)methyl]-5-(4-{[3-(trifluoromethoxy)benzyl]oxy}benzoyl)cyclopentanecarboxylic acid]
9.40 | 5.82 | 6.51 | 6.06 | Cc1cccc(COc2ccc(C(=O)[C@H]3CC[C@@H](Cn4nnc5ccc(C)cc5c4=O)[C@@H]3C(=O)O)cc2)c1 (racemic) [Example 97, (+/−)-(1RS,2RS,5SR)-2-{4-[(3-Methylbenzyl)oxy]benzoyl}-5-[(6-methyl-4-oxo-1,2,3-benzotriazin-3(4H)-yl)methyl]cyclopentanecarboxylic acid]
10.06 | 5.92 | 6.92 | 6.14 | Cc1ccc2nnn(C[C@H]3CC[C@@H](C(=O)c4ccc(OCc5cccc(OC(F)(F)F)c5)cc4)[C@@H]3C(=O)O)c(=O)c2c1 (single isomer, unassigned) [Example 110, (+)-(1RS,2SR,5RS)-2-[(6-Methyl-4-oxo-1,2,3-benzotriazin-3(4H)-yl)methyl]-5-(4-{[3-(trifluoromethoxy)benzyl]oxy}benzoyl)cyclopentanecarboxylic acid]
9.92 | 6.57 | 7.51 | 6.64 | Cc1ccc2nnn(C[C@H]3CC[C@@H](C(=O)c4ccc(OCc5cccc(Cl)c5)cc4)[C@@H]3C(=O)O)c(=O)c2c1 (single isomer, unassigned) [Example 104, (+)-(1RS,2RS,5SR)-2-{4-[(3-Chlorobenzyl)oxy]benzoyl}-5-[(6-methyl-4-oxo-1,2,3-benzotriazin-3(4H)-yl)methyl]cyclopentanecarboxylic acid]
